Experimental data from patent publication US20010014737A1, “Vitronectin receptor antagonist” (priority 1997, published 2001).

Target: T1, ανβ3 (the vitronectin receptor) (Homo sapiens, UniProt P05106+P06756)
T1 construct: Human placenta or human platelet ανβ3 (0.1-0.3 mg/mL) in buffer T; from tissue; host or cells: human placenta or human platelets
Assay: Solid-Phase [3H]-SK&F-107260 Binding to ανβ3 (inhibition of vitronectin binding)
Conditions: read-out: inhibits [3H]-SK&F-107260 binding to ανβ3 at a concentration
Description: Inhibition of vitronectin binding
Solid-Phase [^3H]-SK&F-107260 Binding to ανβ3: Human placenta or human platelet ανβ3 (0.1-0.3 mg/mL) in buffer T (containing 2 mM CaCl2 and 1% octylglucoside) was diluted with buffer T containing 1 mM CaCl2, 1 mM MnCl2, 1 mM MgCl2 (buffer A) and 0.05% NaN3, and then immediately added to 96-well ELISA plates (Corning, New York, N.Y.) at 0.1 mL per well. 0.1 - 0.2 μg of ανβ3 was added per well. The plates were incubated overnight at 4° C. At the time of the experiment, the wells were washed once with buffer A and were incubated with 0.1 mL of 3.5% bovine serum albumin in the same buffer for 1 hr at room temperature. Following incubation the wells were aspirated completely and washed twice with 0.2 mL buffer A. […]
The plates were incubated for 1 hr at room temperature. […] The receptors were solubilized with 0.1 mL of 1% SDS and the bound f^3H]-SK&F-107260 was determined by liquid scintillation counting with the addition of 3 mL Ready Safe in a Beckman LS Liquid Scintillation Counter, with 40% efficiency. Nonspecific binding of [^3H]-SK&F-107260 was determined in the presence of 2 μM SK&F-107260 and was consistently less than 1% of total radioligand input. […]

T1 sequence (P06756 31-889 limits assumed): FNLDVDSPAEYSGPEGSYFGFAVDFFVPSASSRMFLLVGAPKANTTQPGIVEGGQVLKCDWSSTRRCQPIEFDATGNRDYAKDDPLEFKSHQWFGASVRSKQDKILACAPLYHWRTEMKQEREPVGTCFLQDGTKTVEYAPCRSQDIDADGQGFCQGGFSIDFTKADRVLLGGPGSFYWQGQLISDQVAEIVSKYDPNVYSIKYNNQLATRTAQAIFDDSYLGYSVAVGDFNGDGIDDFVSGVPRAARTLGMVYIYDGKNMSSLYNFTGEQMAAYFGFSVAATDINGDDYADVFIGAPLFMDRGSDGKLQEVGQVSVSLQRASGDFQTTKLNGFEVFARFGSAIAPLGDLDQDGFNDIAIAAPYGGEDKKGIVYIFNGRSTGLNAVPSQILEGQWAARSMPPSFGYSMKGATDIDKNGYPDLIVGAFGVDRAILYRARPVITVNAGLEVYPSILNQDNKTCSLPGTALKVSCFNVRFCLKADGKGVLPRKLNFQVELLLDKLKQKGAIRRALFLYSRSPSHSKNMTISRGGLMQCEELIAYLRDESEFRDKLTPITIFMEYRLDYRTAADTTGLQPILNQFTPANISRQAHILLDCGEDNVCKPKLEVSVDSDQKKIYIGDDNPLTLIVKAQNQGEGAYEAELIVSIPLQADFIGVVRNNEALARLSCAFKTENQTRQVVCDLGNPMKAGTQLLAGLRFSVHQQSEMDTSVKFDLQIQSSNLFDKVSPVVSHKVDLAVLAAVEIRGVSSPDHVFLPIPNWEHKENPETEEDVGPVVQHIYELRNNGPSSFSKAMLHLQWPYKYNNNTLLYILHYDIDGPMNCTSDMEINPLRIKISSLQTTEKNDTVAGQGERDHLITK
T1 sequence (P06756 891-1048 partner limits assumed): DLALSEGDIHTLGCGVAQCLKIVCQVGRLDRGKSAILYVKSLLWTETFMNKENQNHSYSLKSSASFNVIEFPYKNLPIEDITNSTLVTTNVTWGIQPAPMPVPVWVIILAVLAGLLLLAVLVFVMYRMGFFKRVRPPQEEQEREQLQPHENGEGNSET
T1 sequence (P05106 27-788): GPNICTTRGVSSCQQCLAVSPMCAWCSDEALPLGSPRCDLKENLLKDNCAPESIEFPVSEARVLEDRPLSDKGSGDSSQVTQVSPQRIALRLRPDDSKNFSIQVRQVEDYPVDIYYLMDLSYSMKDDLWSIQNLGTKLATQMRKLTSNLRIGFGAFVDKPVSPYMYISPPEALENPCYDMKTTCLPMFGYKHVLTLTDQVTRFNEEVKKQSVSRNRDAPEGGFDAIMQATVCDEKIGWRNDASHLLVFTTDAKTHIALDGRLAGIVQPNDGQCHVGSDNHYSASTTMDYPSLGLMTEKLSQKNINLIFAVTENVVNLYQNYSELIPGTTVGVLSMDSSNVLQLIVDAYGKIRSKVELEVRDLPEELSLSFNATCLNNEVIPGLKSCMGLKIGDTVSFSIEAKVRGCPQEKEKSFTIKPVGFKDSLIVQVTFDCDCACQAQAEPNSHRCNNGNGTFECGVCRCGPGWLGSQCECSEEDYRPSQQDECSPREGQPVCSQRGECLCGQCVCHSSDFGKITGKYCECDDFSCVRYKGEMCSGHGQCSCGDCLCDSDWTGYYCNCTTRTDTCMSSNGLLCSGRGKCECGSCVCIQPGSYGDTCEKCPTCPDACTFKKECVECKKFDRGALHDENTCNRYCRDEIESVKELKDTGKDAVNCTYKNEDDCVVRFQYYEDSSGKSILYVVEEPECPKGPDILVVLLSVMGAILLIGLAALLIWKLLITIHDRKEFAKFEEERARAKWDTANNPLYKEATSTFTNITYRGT

IC50: ~3 nM
SMILES: Cc1ccnc(NCCCOc2ccc3c(c2)CN(Cc2ccc(C(F)(F)F)cc2)C(=O)[C@H](CC(=O)O)C3)c1 [Example 1, (S)-8-[3-(4-methylpyridin-2-ylamino)-1-propyloxy]-3-oxo-2-[4-(trifluoromethyl)benzyl]-2,3,4,5-tetrahydro-1 H-2-benzazepine-4-acetic acid]
